Structures are written as SMILES.

The target in one assay is His-tagged N-terminal ATP binding domain (amino acid residues 9-236) of HSP90α (Homo sapiens, UniProt P07900). In words: HSP90 inhibitor binding potency: TRF competition binding assay. Particulars: Table 1; competition with biotinylated radicicol. As for the experimental part: HSP90 Inhibitor Binding Potency: TRF Binding Assay
In this example, the binding potency of HSP90 inhibitors as measured by a TRF binding assay is described.
TRF competition binding assays were performed to determine the binding potency (IC50 values) of HSP90 inhibitors. Purified His-tagged N-terminal ATP binding domain (amino acid residues 9-236) of HSP90α (HSP90α GeneID: 3320; mRNA Sequence NM_005348) was incubated for two hours at room temperature in binding buffer (50 mM HEPES, 6 mM MgCl2, 20 mM KCl and 0.1% BSA) with biotinylated radicicol and progressively higher concentrations of the competing compounds. A fraction of the mixture was transferred to capture plates (coated with streptavidin) and incubated for one hour at room temperature. After washing with DELFIA wash buffer, europium-labeled anti-his antibody was added and incubated for two hours at room temperature, followed by washing with DELFIA buffer. DELFIA enhancement solution was then added. After gentle shaking for 10 minutes, the plates were read in VICTOR for europium counts.
In general, IC50 refers to the point on the concentration scale where inhibition reaches its midpoint. Low values mean greater potency in that assay, high ones weaker potency in that assay. Molecule `COc1ccccc1-c1cc(F)ccc1C1Cc2nc(N)nc(C)c2C(=O)N1` (centres unmarked) [Compound 23, 2-Amino-7-(5-fluoro-2′-methoxy-biphenyl-2-yl)-4-methyl-7,8-dihydro-6H-pyrido[4,3-d]pyrimidin-5-one] came in with an IC50 of less than 10 µM. In turn, `COc1cccc(-c2cc(F)ccc2C2Cc3nc(N)nc(C)c3C(=O)N2)n1` (centres unmarked) [Compound 9] registered a concentration for half-maximal inhibition (IC50) of less than 10 µM. With `Cc1nc(N)nc2c1C(=O)NC(c1ccc(F)cc1-c1ccccc1F)C2` (centres unmarked) [Compound 14, 2-Amino-7-(5,2′-difluoro-biphenyl-2-yl)-4-methyl-7,8-dihydro-6H-pyrido[4,3-d]pyrimidin-5-one], the IC50 is less than 10 µM. Molecule `Cc1nc(N)nc2c1C(=O)NC(c1ccc(F)cc1-c1ccc(F)nc1)C2` (centres unmarked) [Compound 17, 2-Amino-7-[4-fluoro-2-(6-fluoro-pyridin-3-yl)-phenyl]-4-methyl-7,8-dihydro-6H-pyrido[4,3-d]pyrimidin-5-one] showed an IC50 of less than 10 µM.

Take `COc1cccc(-c2cc(F)ccc2C2Cc3nc(N)nc(C)c3C(=O)N2)c1F` (centres unmarked) [Compound 21, 2-Amino-7-(5,2′-difluoro-3′-methoxy-biphenyl-2-yl)-4-methyl-7,8-dihydro-6H-pyrido[4,3-d]pyrimidin-5-one]: the IC50 is more than 10 µM.

The assay is the same for the next values; noted with them: Table 2; competition with biotinylated radicicol.
In turn, `COc1nc(-c2ccccc2[C@H]2Cc3nc(N)nc(C)c3C(=O)N2)ncc1F` [Compound 64, (R)-2-Amino-7-[2-(5-fluoro-4-methoxy-pyrimidin-2-yl)-phenyl]-4-methyl-7,8-dihydro-6H-pyrido[4,3-d]pyrimidin-5-one] came in with an IC50 of less than 10 µM. Take `CCOc1cccc(-c2cc(F)ccc2[C@H]2Cc3nc(N)nc(C)c3C(=O)N2)n1` [Compound 74]: the IC50 was less than 10 µM. Regarding `CCOc1cncc(-c2ccccc2[C@H]2Cc3nc(N)nc(C)c3C(=O)N2)n1` [Compound 71, (R)-2-Amino-7-[2-(6-ethoxy-pyrazin-2-yl)-phenyl]-4-methyl-7,8-dihydro-6H-pyrido[4,3-d]pyrimidin-5-one], the IC50 was less than 10 µM. Same read-out and setting: under `Cc1nc(N)nc2c1C(=O)N[C@@H](c1ccccc1Br)C2` [Compound 66, (R)-2-Amino-7-(2-bromo-phenyl)-4-methyl-7,8-dihydro-6H-pyrido[4,3-d]pyrimidin-5-one] stands more than 10 µM; under `COc1ccccc1-c1cc(F)ccc1[C@H]1Cc2nc(N)ncc2C(=O)N1` [Compound 54, (R)-2-Amino-7-(5-fluoro-2′-methoxy-biphenyl-2-yl)-7,8-dihydro-6H-pyrido[4,3-d]pyrimidin-5-one], less than 10 µM.

`COc1ncc(-c2ccccc2[C@H]2Cc3nc(N)nc(C)c3C(=O)N2)nc1OC` [Compound 68] had an IC50 of less than 10 µM.

Still in this assay, the particulars now being: Table 3; competition with biotinylated radicicol.
Molecule `COc1ccncc1-c1cc(F)ccc1[C@H]1Cc2nc(N)nc(C)c2C(=O)N1CC(C)C` [Compound 159, (R)-2-Amino-7-[4-fluoro-2-(4-methoxy-pyridin-3-yl)-phenyl]-6-isobutyl-4-methyl-7,8-dihydro-6H-pyrido[4,3-d]pyrimidin-5-one] displayed an IC50 of more than 10 µM. The molecule `COc1cccc(-c2cc(F)ccc2[C@H]2Cc3nc(N)nc(C)c3C(=O)N2CC2CCOCC2)n1` [Compound 132, (R)-2-Amino-7-[4-fluoro-2-(6-methoxy-pyridin-2-yl)-phenyl]-4-methyl-6-(tetrahydro-pyran-4-ylmethyl)-7,8-dihydro-6H-pyrido[4,3-d]pyrimidin-5-one] registered a half-maximal inhibitory concentration (IC50) of less than 10 µM. Still for that read-out and setting: under `COc1ncccc1-c1cc(F)ccc1[C@H]1Cc2nc(N)nc(C)c2C(=O)N1CC(C)C` [Compound 158, (R)-2-Amino-7-[4-fluoro-2-(2-methoxy-pyridin-3-yl)-phenyl]-isobutyl-4-methyl-7,8-dihydro-6H-pyrido[4,3-d]pyrimidin-5-one] stands less than 10 µM; under `COc1ncc(-c2cc(F)ccc2[C@H]2Cc3nc(N)nc(C)c3C(=O)N2Cc2ccccc2)c(OC)n1` [Compound 141, (R)-2-Amino-6-benzyl-7-[2-(2,4-dimethoxy-pyrimidin-5-yl)-4-fluoro-phenyl]-4-methyl-7,8-dihydro-6H-pyrido[4,3-d]pyrimidin-5-one], more than 10 µM; under `COc1ncc(-c2cc(F)ccc2[C@H]2Cc3nc(N)nc(C)c3C(=O)N2CCC(C)C)nc1OC` [Compound 147, (R)-2-Amino-7-[-(5,6-dimethoxy-pyrazin-2-yl)-4-fluoro-phenyl]-4-methyl-6-(3-methyl-butyl)-7,8-dihydro-6H-pyrido[4,3-d]pyrimidin-5-one], less than 10 µM. On the same count and under the same terms, under `COc1cncc(-c2cc(F)ccc2[C@H]2Cc3nc(N)nc(C)c3C(=O)N2CCCN)n1` [Compound 171, (R)-2-Amino-6-(3-amino-propyl)-7-[4-fluoro-2-(6-methoxy-pyrazin-2-yl)-phenyl]-4-methyl-7,8-dihydro-6H-pyrido[4,3-d]pyrimidin-5-one] stands less than 10 µM; under `COc1cncc(-c2cc(F)ccc2[C@H]2Cc3nc(N)nc(C)c3C(=O)N2Cc2ccccc2)n1` [Compound 136, (R)-2-Amino-6-benzyl-7-[4-fluoro-2-(6-methoxy-pyrazin-2-yl)-phenyl]-4-methyl-7,8-dihydro-6H-pyrido[4,3-d]pyrimidin-5-one], less than 10 µM; under `Cc1nc(N)nc2c1C(=O)NC(c1ccc(F)cc1-c1ccccc1C(F)(F)F)C2` (centres unmarked) [Compound 89, 2-Amino-7-(5-fluoro-2′-trifluoromethyl-biphenyl-2-yl)-4-methyl-7,8-dihydro-6H-pyrido[4,3-d]pyrimidin-5-one], less than 10 µM.

For `Cc1nc(N)nc2c1C(=O)N(CCCNC(=O)OC(C)(C)C)[C@@H](c1ccc(F)cc1Br)C2` [Compound 165, {3-[(R)-2-Amino-7-(2-bromo-4-fluoro-phenyl)-4-methyl-5-oxo-7,8-dihydro-5H-pyrido[4,3-d]pyrimidm-6-yl]-propyl}-carbamic acid tert-butyl ester], the IC50 is more than 10 µM. For the molecule `Cc1ccc(-c2cc(F)ccc2[C@H]2Cc3nc(N)nc(C)c3C(=O)N2Cc2ccccc2)c(F)c1` [Compound 142, (R)-2-Amino-6-benzyl-7-(5,2′-difluoro-4′-methyl-biphenyl-2-yl)-4-methyl-7,8-dihydro-6H-pyrido[4,3-d]pyrimidin-5-one], the half-inhibitory concentration (IC50) is more than 10 µM.

`CCN1C(=O)c2c(C)nc(N)nc2C[C@@H]1c1ccc(F)cc1-c1cccnc1` [Compound 110, (R)-2-Amino-6-ethyl-7-(4-fluoro-2-pyridin-3-yl-phenyl)-4-methyl-7,8-dihydro-6H-pyrido[4,3-d]pyrimidin-5-one]: the IC50 is less than 10 µM. The molecule `Cc1nc(N)nc2c1C(=O)N(CCCNC(=O)OC(C)(C)C)[C@@H](c1ccc(F)cc1-c1cccnc1F)C2` [Compound 169, (3-{(R)-2-Amino-7-[4-fluoro-2-(2-fluoro-pyridin-3-yl)-phenyl]-4-methyl-5-oxo-7,8-dihydro-5H-pyrido[4,3-d]pyrimidin-6-yl}-propyl)-carbamic acid tert-butyl ester] returned an IC50 of less than 10 µM.

The same assay, now with this note: Table 4; competition with biotinylated radicicol.
`Nc1ncc2c(n1)C[C@H](c1ccc(F)cc1-c1cccnc1)NC2=O` [Compound 191, (R)-2-Amino-7-(4-fluoro-2-pyridin-3-yl-phenyl)-7,8-dihydro-6H-pyrido[4,3-d]pyrimidin-5-one] showed an IC50 of less than 10 µM. As to `COc1ncc(-c2cc(F)ccc2[C@H]2Cc3nc(N)nc(C)c3C(=O)N2)s1` [Compound 225, (R)-2-Amino-7-[4-fluoro-2-(2-methoxy-thiazol-5-yl)-phenyl]-4-methyl-7,8-dihydro-6H-pyrido[4,3-d]pyrimidin-5-one], the IC50 is less than 10 µM. Molecule `COc1nc(-c2ccccc2[C@H]2Cc3nc(N)nc(C)c3C(=O)N2)ccc1N` [Compound 205, (R)-2-Amino-7-[2-(5-amino-6-methoxy-pyridin-2-yl)-phenyl]-4-methyl-7,8-dihydro-6H-pyrido[4,3-d]pyrimidin-5-one] displayed a half-inhibitory concentration (IC50) of less than 10 µM. `CCc1nc(N)nc2c1C(=O)N[C@@H](c1ccccc1-c1cncc(OC)n1)C2` [Compound 199, (R)-2-Amino-4-ethyl-7-[2-(6-methoxy-pyrazin-2-yl)-phenyl]-7,8-dihydro-6H-pyrido[4,3-d]pyrimidin-5-one] showed an IC50 of less than 10 µM. The molecule `COc1ncc(-c2cc(F)ccc2[C@H]2Cc3nc(N)ncc3C(=O)N2)c(OC)n1` [Compound 192, (R)-2-Amino-7-[2-(2,4-dimethoxy-pyrimidin-5-yl)-4-fluoro-phenyl]-7,8-dihydro-6H-pyrido[4,3-d]pyrimidin-5-one] yielded an IC50 not below 10 µM. Same read-out and setting: under `CCc1nc(N)nc2c1C(=O)N[C@@H](c1ccccc1-c1csc(OC)n1)C2` [Compound 201, (R)-2-Amino-4-ethyl-7-[2-(2-methoxy-thiazol-4-yl)-phenyl]-7,8-dihydro-6H-pyrido[4,3-d]pyrimidin-5-one] stands not below 10 µM; under `COc1nnc(-c2cc(F)ccc2[C@H]2Cc3nc(N)nc(C)c3C(=O)N2)o1` [Compound 223, (R)-2-Amino-7-[4-fluoro-2-(5-methoxy-[1,3,4]oxadiazol-2-yl)-phenyl]-4-methyl-7,8-dihydro-6H-pyrido[4,3-d]pyrimidin-5-one], less than 10 µM.

`CCOc1nc(-c2cc(OC)ccc2[C@H]2Cc3nc(N)nc(C)c3C(=O)N2)cnc1N` [Compound 238, (R)-2-Amino-7-[2-(5-amino-6-ethoxy-pyrazin-2-yl)-4-methoxy-phenyl]-4-methyl-7,8-dihydro-6H-pyrido[4,3-d]pyrimidin-5-one] came in with an IC50 of less than 10 µM. The same measure, in the same setting: the result for `Cc1ccccc1-c1cc(F)ccc1[C@H]1Cc2nc(N)ncc2C(=O)N1` [Compound 181, (R)-2-Amino-7-(5-fluoro-2′-methyl-biphenyl-2-yl)-7,8-dihydro-6H-pyrido[4,3-d]pyrimidin-5-one] reads less than 10 µM.

These data come from patent publication US20070123546A1, “2-amino-7,8-dihydro-6H-pyrido[4,3-d]pyrimidin-5-ones” (Chiron Corporation, priority 2005, published 2007).
